Structures are written as SMILES.

From patent publication US6924309B2 (Children, Youth and Women's Health Service Incorporated, priority 1999, dated 2005) come the findings set out here.

What all share (type): cell-based
Test [1] has as its system Plasmodium falciparum isolates 3D7, FC27, K+. As to the kind of experiment: Radiometric (3H-hypoxanthine) assay on asexual blood stages of P. falciparum. The essentials:
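Isolates grown in human O+ erythrocytes with 10% AB serum at 37 °C; cultures at 1×10^8 erythrocytes/ml were exposed to the fatty acids for 4 h, then pulsed with 3H-hypoxanthine for a further 18 h. Incorporated radioactivity was counted and expressed as % growth inhibition versus diluent-treated cultures.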

The test system of test [2] is human neutrophils. As to the kind of experiment: AA-enhanced chemiluminescence in human neutrophils. The settings on record: neutrophils pretreated with compound. On the procedure: Arachidonic acid (AA) is a natural agonist which stimulates oxygen radical production in neutrophils leading to tissue damage during inflammation. Studies were conducted to examine whether or not the Lx compounds could antagonise the effects of AA. Neutrophils were pretreated with Lx compounds and then examined for chemiluminescence response to AA addition. […] The effect of Lx compounds on AA-enhanced chemiluminescence in human neutrophils is shown graphically in FIG. 11.

For test [3], the system named is human neutrophils. As to the kind of experiment: Neutrophil lucigenin dependent chemiluminescence (superoxide production). As to conditions: 20 μM. The procedure: The activation of human neutrophils by nitro compounds was assessed by the ability to stimulate superoxide production (chemiluminescence response) and release of lysosomal enzymes from specific and azurophilic granules. Neutrophils were prepared from whole blood taken from normal healthy volunteers by the rapid-single step procedure^(41). Briefly, blood anticoagulated with heparin was carefully layered on a hypaque-ficoll medium of 1.114 g/ml and centrifuged in swing-out-buckets at 200 g/30 min. The leukocytes were resolved into two bands and the erythrocytes sedimented at the bottom of the tube. The second leukocyte band approximately 0.7 cm from the mononuclear cell containing band at the interface contained neutrophils of >98% purity and >99% viability (trypan blue dye exclusion criteria). The neutrophils were carefully harvested with a pasteur pipette, and washed and resuspended in tissue culture medium. The respiratory burst response of neutrophils was assessed by measuring superoxide production by the lucigenin dependent chemiluminescence assay essentially as described previously^(42). Briefly, 1×10^6 neutrophils (100 μl) in HBSS were treated with the nitro analogues of fatty acids (100 μl), then lucigenin was added and the volume made up. FIG. 7 illustrates the effects of Lx compounds on the neutrophil chemiluminescence reponse. Results are the means ±SEM of 4-12 experiments. […]

Consider `CCCCC/C=C\C/C=C\C/C=C\C/C=C\CCCC(CCC(=O)O)[N+](=O)[O-]` (stereo not drawn) [Lx7, (a11-Z)-4-Nitrotricosa-8,11,14,17-tetraenoic acid], for which, in test [1], the “Antimalarial activity (in words)” value is “did not have appreciable antimalarial activity”. In the test on human neutrophils [2], the “Inhibition of AA-stimulated oxygen radical production (chemiluminescence)” value was “particularly evident”. Moreover, the Neutrophil chemiluminescence response entry in the test on human neutrophils [3] was “marginal compared to 20:4n-6 and 22:6n-3”.
